Assay results reported in US8642788B2, “Activators of executioner procaspases 3, 6 and 7” (The Regents of the University of California, priority 2008, dated 2014).
Like-named read-outs stand apart in the source and are kept apart here.

Assays:
Type in all cases: biochemical
procaspase-6 = biological target: T1, procaspase-6 (Homo sapiens, UniProt P55212); experiment: Executioner procaspase-6 activation assay (Ac-VEID-AFC fluorogenic substrate); conditions: incubation with compound for 5 h at 37° C.; 100 nM procaspase
T1 sequence (P55212 1-293): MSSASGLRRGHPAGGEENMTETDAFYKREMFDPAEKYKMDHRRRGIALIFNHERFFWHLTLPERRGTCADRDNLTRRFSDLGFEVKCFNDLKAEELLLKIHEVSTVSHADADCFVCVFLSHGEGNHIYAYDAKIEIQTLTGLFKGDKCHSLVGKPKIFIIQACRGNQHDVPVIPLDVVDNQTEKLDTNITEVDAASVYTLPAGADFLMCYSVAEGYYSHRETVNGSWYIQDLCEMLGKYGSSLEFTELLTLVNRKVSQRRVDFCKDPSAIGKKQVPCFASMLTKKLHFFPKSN
Procedure, shortened: (§1)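 Procaspase at 100 nM incubated with compound (100 nM–100 μM) in 50 mM HEPES pH 7.4, KCl, DTT, 0.01% Triton X-100, 3% DMSO, 37 °C for 5 h; then 25 μM Ac-DEVD-AFC (procaspase-7) or Ac-VEID-AFC (procaspase-6), kinetic fluorescence 30 min (ex 365/em 495); EC50 reported.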

procaspase-3 = biological target: T2, procaspase-3 (Homo sapiens, UniProt P42574); experiment: Executioner procaspase-3 activation assay (Ac-DEVD-AFC fluorogenic substrate)
T2 construct: His6 (C); made in house; host or cells: E. coli BL21(DE3)RP, pET-23b
T2 sequence (P42574 1-277): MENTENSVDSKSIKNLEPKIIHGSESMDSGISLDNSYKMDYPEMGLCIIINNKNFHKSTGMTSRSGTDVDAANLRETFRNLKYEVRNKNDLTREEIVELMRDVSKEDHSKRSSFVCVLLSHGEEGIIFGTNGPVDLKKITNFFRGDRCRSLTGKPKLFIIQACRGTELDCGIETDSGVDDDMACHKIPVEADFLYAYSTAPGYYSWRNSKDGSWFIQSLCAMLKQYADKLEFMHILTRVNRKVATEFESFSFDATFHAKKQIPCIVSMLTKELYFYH
Procedure, shortened: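 Procaspase-3 at 100 nM was incubated with activating compounds (100 nM to 100 uM) in 50 mM HEPES pH 7.4, 50 mM KCl, 1 mM DTT and 0.01% Triton-X100, the detergent limiting aggregation artefacts. Protein, substrate and inhibitor were kept as frozen aliquots and thawed just before use.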

procaspase-7 = biological target: T3, procaspase-7 (Homo sapiens, UniProt P55210); experiment: Executioner procaspase-7 activation assay (Ac-DEVD-AFC fluorogenic substrate); conditions: incubation with compound for 5 h at 37° C.; 100 nM procaspase
T3 construct: His6 (C); made in house; host or cells: E. coli BL21(DE3)RP, pET-21b
T3 sequence (P55210 1-303): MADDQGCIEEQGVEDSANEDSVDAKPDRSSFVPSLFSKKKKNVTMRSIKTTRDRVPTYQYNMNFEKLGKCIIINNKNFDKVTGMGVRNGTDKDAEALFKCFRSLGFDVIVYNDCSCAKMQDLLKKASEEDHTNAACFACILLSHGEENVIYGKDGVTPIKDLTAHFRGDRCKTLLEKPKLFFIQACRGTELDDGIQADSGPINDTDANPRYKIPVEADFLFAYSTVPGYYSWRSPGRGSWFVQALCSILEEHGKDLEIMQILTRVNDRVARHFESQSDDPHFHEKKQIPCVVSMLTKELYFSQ
Procedure, shortened: as §1

[1] = incubation with compound for 5 h at 37° C., 100 nM procaspase, read-out: Procaspase Activation 3

EC50 (procaspase-6) [µM] | EC50 (procaspase-3; [1]) [µM] | EC50 (procaspase-7) [µM] | Structure (SMILES) | EC50 (procaspase-3) [µM]
> 100 | > 100 | > 100 | CCOc1ccc(-c2cccc(NC(=O)c3cc4cccc(OC)c4oc3=O)c2)cc1C [compound 66, 8-Methoxy-2-oxo-2H-chromene-3-carboxylic acid (4′-ethoxy-3′-methyl-biphenyl-3-yl)-amide] | 
> 100 | > 100 | > 100 | COc1cccc2cc(C(=O)Nc3cccc(-c4cnn(Cc5ccccc5)c4)c3)c(=O)oc12 [compound 170, 8-Methoxy-2-oxo-2H-chromene-3-carboxylic acid [3-(1-benzyl-1H-pyrazol-4-yl)-phenyl]-amide] | 
> 100 | > 100 | > 100 | COc1ncccc1-c1cccc(NC(=O)c2cc3cccc(OC)c3oc2=O)c1 [compound 142, 8-Methoxy-2-oxo-2H-chromene-3-carboxylic acid [3-(2-methoxy-pyridin-3-yl)-phenyl]-amide] | 
> 100 | > 100 | > 100 | COc1ccc(-c2cccc(NC(=O)c3cc4cccc(OC(F)(F)F)c4oc3=O)c2)cc1C [compound 49, 8-Trifluoromethoxy-2-oxo-2H-chromene-3-carboxylic acid (4′-Methoxy-3′-methyl-biphenyl-3-yl)-amide] | 
> 100 | > 100 | > 100 | N#Cc1cccc(-c2cccc(NC(=O)c3cc4cccc(O)c4oc3=O)c2)c1 [compound 147, 8-Hydroxy-2-oxo-2H-chromene-3-carboxylic acid (3′-cyano-biphenyl-3-yl)-amide] | 
> 100 | > 100 | > 100 | Cn1ccc2cc(-c3cccc(NC(=O)c4cc5cccc(O)c5oc4=O)c3)ccc21 [compound 163, 8-Hydroxy-2-oxo-2H-chromene-3-carboxylic acid [3-(1-methyl-1H-indol-5-yl)-phenyl]-amide] | 
> 100 | > 100 | > 100 | COc1ccc(-c2cccc(NC(=O)c3cc4cccc(OC)c4oc3=O)c2)cc1C [compound 48, 8-Methoxy-2-oxo-2H-chromene-3-carboxylic acid (4′-Methoxy-3′-methyl-biphenyl-3-yl)-amide] | 
> 100 | > 100 | > 100 | COc1cccc2cc(C(=O)Nc3cccc(-c4c(C)noc4C)c3)c(=O)oc12 [compound 154, 8-Methoxy-2-oxo-2H-chromene-3-carboxylic acid [3-(3,5-dimethyl-isoxazol-4-yl)-phenyl]-amide] | 
> 100 | > 100 | > 100 | COc1ccc(OC)c(-c2cccc(NC(=O)c3cc4cccc(OC(F)(F)F)c4oc3=O)c2)c1 [compound 58, 8-Trifluoromethoxy-2-oxo-2H-chromene-3-carboxylic acid (2′,5′-dimethoxy-biphenyl-3-yl)-amide] | 
> 100 | > 100 | > 100 | CCOc1ccc(-c2cccc(NC(=O)c3cc4cccc(O)c4oc3=O)c2)cc1C [compound 65, 8-Hydroxy-2-oxo-2H-chromene-3-carboxylic acid (4′-ethoxy-3′-methyl-biphenyl-3-yl)-amide] | 
> 100 | > 100 | > 100 | CC(=O)Nc1ccccc1-c1cccc(NC(=O)c2cc3cccc(O)c3oc2=O)c1 [compound 95, 8-Hydroxy-2-oxo-2H-chromene-3-carboxylic acid (2′-acetylamino-biphenyl-3-yl)-amide] | 
> 100 | 10 to 50 | 10 to 50 | Cn1nccc1-c1cccc(NC(=O)c2cc3cccc(O)c3oc2=O)c1 [compound 151, 8-Hydroxy-2-oxo-2H-chromene-3-carboxylic acid [3-(2-methyl-2H-pyrazol-3-yl)-phenyl]-amide] | 
> 100 | > 100 | > 100 | COc1cccc2cc(C(=O)Nc3cccc(-c4ccc(O)nc4)c3)c(=O)oc12 [compound 140, 8-Methoxy-2-oxo-2H-chromene-3-carboxylic acid [3-(6-hydroxy-pyridin-3-yl)-phenyl]-amide] | 
> 100 | > 100 | > 100 | COc1cccc2cc(C(=O)Nc3cccc(-c4cnc5ccccc5c4)c3)c(=O)oc12 [compound 84, 8-Methoxy-2-oxo-2H-chromene-3-carboxylic acid [3-Quinolin-3-yl-phenyl]-amide] | 
0.5 to 10 | > 100 | > 100 | COc1cccc2cc(C(=O)Nc3cccc(-c4ccc5occc(=O)c5c4)c3)c(=O)oc12 [compound 162, 8-Methoxy-2-oxo-2H-chromene-3-carboxylic acid [3-(4-oxo-4H-chromen-6-yl)-phenyl]-amide] | 
> 100 | > 100 | > 100 | O=C(Nc1cccc(-c2ccc3nonc3c2)c1)c1cc2cccc(O)c2oc1=O [compound 159, 8-Hydroxy-2-oxo-2H-chromene-3-carboxylic acid (3-benzo[1,2,5]oxadiazol-5-yl-phenyl)-amide] | 
> 100 | > 100 | > 100 | CCOc1ncccc1-c1cccc(NC(=O)c2cc3cccc(OC)c3oc2=O)c1 [compound 42, 8-Methoxy-2-oxo-2H-chromene-3-carboxylic acid [3-(2-ethoxy-pyridin-3-yl)-phenyl]-amide] | 
> 100 | > 100 | > 100 | COc1ccc(-c2cccc(NC(=O)c3cc4cccc(OC(F)(F)F)c4oc3=O)c2)c(OC)c1 [compound 52, 8-Trifluoromethoxy-2-oxo-2H-chromene-3-carboxylic acid (2′,4′-dimethoxy-biphenyl-3-yl)-amide] | 
> 100 | > 100 | > 100 | CCOc1ncccc1-c1cccc(NC(=O)c2cc3cccc(OC(F)(F)F)c3oc2=O)c1 [compound 43, 8-Trifluoromethoxy-2-oxo-2H-chromene-3-carboxylic acid [3-(2-ethoxy-pyridin-3-yl)-phenyl]-amide] | 
> 100 | > 100 | > 100 | CN(C)c1ccc(-c2cccc(NC(=O)c3cc4cccc(O)c4oc3=O)c2)cn1 [compound 137, 8-Hydroxy-2-oxo-2H-chromene-3-carboxylic acid [3-(6-dimethylamino-pyridin-3-yl)-phenyl]-amide] | 

Structure (SMILES) | EC50 (procaspase-6) [µM] | EC50 (procaspase-3; [1]) [µM] | EC50 (procaspase-7) [µM] | EC50 (procaspase-3) [µM]
O=C(Nc1cccc(-c2ccc3[nH]ccc3c2)c1)c1cc2cccc(O)c2oc1=O [compound 92, 8-Hydroxy-2-oxo-2H-chromene-3-carboxylic acid (3-(1H-Indol-5-yl)-phenyl)-amide] | > 100 |  | > 100 | > 100
